Like-named read-outs stand apart in the source and are kept apart here.
Tested on: Lox-IMVI melanoma cell line
Test: Lox-IMVI anti-proliferative assay (growth inhibition, Cell Titer-Glo)
Format: cell-based, human
In short: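 Luminescence from cellular ATP measured viability at compound addition and again after 72 h of exposure (37 °C, 5% CO2, RPMI + 10% FBS). Doses spanned 0.5 nM to 10 μM in ten 3-fold steps with 0.2% DMSO. Values were fitted as % of DMSO-treated cells by sigmoidal dose-response.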

[1] = Homo sapiens, IC50 activity level in the cell-based Lox-IMVI anti-proliferative assay, read-out: Activity
[2] = Homo sapiens, Lox-IMVI melanoma cell line, anti-proliferative assay, read-out: Activity (IC50 activity level)
[3] = Homo sapiens, Lox-IMVI anti-proliferative assay, IC50 activity level, read-out: Activity

Compound	IC50 [1]	IC50 [2]	other results
NC(=O)[C@H]1CC[C@@H](n2c(Nc3c(F)cc(Cl)cc3F)nc3cnc(N[C@@H]4CCOC4)nc32)CC1 [Example 221, (1S,4s)-4-(8-(4-chloro-2,6-difluorophenylamino)-2-((R)-tetrahydrofuran-3-ylamino)-9H-purin-9-yl)cyclohexanecarboxamide]	500 to 1000 nM		
C[C@@H]1CC[C@@H](Nc2ncc3nc(Nc4c(Cl)cc(F)cc4Cl)n([C@H]4CC[C@@H](C(N)=O)CC4)c3n2)C[C@H]1O [Example 355, (1S,4s)-4-(8-(2,6-dichloro-4-fluorophenylamino)-2-((1R,3R,4R)-3-hydroxy-4-methylcyclohexylamino)-9H-purin-9-yl)cyclohexanecarboxamide]	> 1000 nM		
C[C@@H](CO)Nc1ncc2nc(Nc3c(Cl)cc(C#N)cc3Cl)n([C@H]3CC[C@@](C)(C(N)=O)CC3)c2n1 [Example 553, (1R,4s)-4-(8-(2,6-dichloro-4-cyanophenylamino)-2-((S)-1-hydroxypropan-2-ylamino)-9H-purin-9-yl)-1-methylcyclohexanecarboxamide]			IC50 [3]: < 250 nM
C[C@]1(C(N)=O)CC[C@@H](n2c(Nc3c(F)cc(C#N)cc3F)nc3cnc(NC4CCOCC4)nc32)CC1 [Example 524, (1s,4s)-4-(8-(4-cyano-2,6-difluorophenylamino)-2-(tetrahydro-2H-pyran-4-ylamino)-9H-purin-9-yl)-1-methylcyclohexanecarboxamide]			IC50 [3]: < 250 nM
COc1ccc(Nc2nc3cnc(NC4CCOCC4)nc3n2[C@H]2CC[C@@H](C(N)=O)CC2)c(F)c1F [Example 380, (1s,4s)-4-(8-(2,3-difluoro-4-methoxyphenylamino)-2-(tetrahydro-2H-pyran-4-ylamino)-9H-purin-9-yl)cyclohexanecarboxamide]	> 1000 nM		
CC1(C)CC[C@@H](Nc2ncc3nc(Nc4c(Cl)cccc4Cl)n([C@H]4CC[C@@H](C(N)=O)CC4)c3n2)C[C@H]1O [Example 383, (1S,4s)-4-(8-(2,6-dichlorophenylamino)-2-((1R,3R)-3-hydroxy-4,4-dimethylcyclohexylamino)-9H-purin-9-yl)cyclohexanecarboxamide]	> 1000 nM		
NC(=O)[C@H]1CC[C@@H](n2c(Nc3c(F)cc(Cl)cc3F)nc3cnc(N[C@H]4CCC(F)(F)C4)nc32)CC1 [Example 587, (1R,4s)-4-(8-(4-chloro-2,6-difluorophenylarnino)-2-((S)-3,3-difluorocyclopentylamino)-9H-purin-9-yl)cyclohexanecarboxamide]			IC50 [3]: 250 to 500 nM
C[C@@H](CO)Nc1ncc2nc(Nc3c(F)cc(C#N)cc3Cl)n([C@H]3CC[C@@](C)(C(N)=O)CC3)c2n1 [Example 552, (1R,4s)-4-(8-(2-chloro-4-cyano-6-fluorophenylamino)-2-((S)-1-hydroxypropan-2-ylamino)-9H-purin-9-yl)-1-methylcyclohexanecarboxamide]			IC50 [3]: < 250 nM
NC(=O)[C@H]1CC[C@@H](n2c(Nc3c(F)cc(F)cc3Cl)nc3cnc(NC4CCCC4)nc32)CC1 [Example 119, (1s,4s)-4-(8-(2-chloro-4,6-difluorophenylamino)-2-(cyclopentylamino)-9H-purin-9-yl)cyclohexanecarboxamide]	250 to 500 nM		
NC(=O)[C@H]1CC[C@@H](n2c(Nc3c(Cl)cccc3Cl)nc3cnc(N[C@@H]4CCC[C@H](O)C4)nc32)CC1 [Example 349, (1S,4s)-4-(8-(2,6-dichlorophenylamino)-2-((1R,3S)-3-hydroxycyclohexylamino)-9H-purin-9-yl)cyclohexanecarboxamide]	> 1000 nM		
C[C@]1(C(N)=O)CC[C@@H](n2c(Nc3c(Cl)cc(F)cc3Cl)nc3cnc(NC4CCC4)nc32)CC1 [Example 606, (1s,4s)-4-(2-(cyclobutylamino)-8-(2,6-dichloro-4-fluorophenylamino)-9H-purin-9-yl)-1-methylcyclohexanecarboxamide]			IC50 (Lox-IMVI melanoma cell line, anti-proliferative assay, read-out: Activity (IC50 activity level)): < 250 nM
C[C@H]1COCC[C@H]1Nc1ncc2nc(Nc3c(F)cc(Cl)cc3F)n([C@H]3CC[C@@H](C(N)=O)CC3)c2n1 [Example 508, (1S,4s)-4-(8-(4-chloro-2,6-difluorophenylamino)-2-((3R,4R)-3-methyltetrahydro-2H-pyran-4-ylamino)-9H-purin-9-yl)cyclohexanecarboxamide]			IC50 [3]: 500 to 1000 nM
CC(C)Nc1ncc2nc(Nc3c(Cl)cccc3Cl)n([C@H]3CC[C@@H](C(N)=O)CC3)c2n1 [Example 52]	> 1000 nM		
NC(=O)[C@H]1CC[C@@H](n2c(Nc3c(F)cc(Cl)cc3Cl)nc3cnc(N[C@H]4CCC[C@H](O)C4)nc32)CC1 [Example 464, (1R,4s)-4-(8-(2,4-dichloro-6-fluorophenylamino)-2-((1S,3S)-3-hydroxycyclohexylamino)-9H-purin-9-yl)cyclohexanecarboxamide]			IC50 [3]: 500 to 1000 nM

The next lines start with results.

IC50 [1]	IC50 [2]	Compound	other results
	500 to 1000 nM	CC(C)OC(=O)N1CCC[C@@H](Nc2ncc3nc(Nc4c(Cl)cc(Cl)cc4Cl)n([C@H]4CC[C@@H](C(N)=O)CC4)c3n2)C1 [Example 768, (R)-isopropyl 3-(9-((1s,4S)-4-carbamoylcyclohexyl)-8-(2,4,6-trichlorophenylamino)-9H-purin-2-ylamino)piperidine-1-carboxylate]	
	< 250 nM	C[C@@H]1COCC[C@H]1Nc1ncc2nc(Nc3c(Cl)cc(Cl)cc3Cl)n([C@H]3CC[C@@](C)(C(N)=O)CC3)c2n1 [Example 727, (1S,4s)-1-methyl-4-(2-((3S,4R)-3-methyltetrahydro-2H-pyran-4-ylamino)-8-(2,4,6-trichlorophenylamino)-9H-purin-9-yl)cyclohexanecarboxamide]	
	< 250 nM	C[C@]1(C(N)=O)CC[C@@H](n2c(Nc3c(F)cc(Cl)cc3F)nc3cnc(N[C@@H]4CC[C@@H](O)C4)nc32)CC1 [Example 639, (1S,4s)-4-(8-(4-chloro-2,6-difluorophenylamino)-2-((1R,3R)-3-hydroxycyclopentylamino)-9H-purin-9-yl)-1-methylcyclohexanecarboxamide]	
	250 to 500 nM	C[C@]1(C(N)=O)CC[C@@H](n2c(Nc3c(F)cc(Cl)cc3Cl)nc3cnc(N[C@H]4CC[C@H](O)C4)nc32)CC1 [Example 646, (1R,4s)-4-(8-(2,4-dichloro-6-fluorophenylamino)-2-((1S,3S)-3-hydroxycyclopentylamino)-9H-purin-9-yl)-1-methylcyclohexanecarboxamide]	
	> 1000 nM	NC(=O)[C@H]1CC[C@@H](n2c(Nc3c(F)cc(Cl)cc3Cl)nc3cnc(NC4CCC(N5C(=O)CCC5=O)CC4)nc32)CC1 (stereo partly drawn) [Example 667, (1s,4s)-4-(8-(2,4-dichloro-6-fluorophenylamino)-2-(4-(2,5-dioxopyrrolidin-1-yl)cyclohexylamino)-9H-purin-9-yl)cyclohexanecarboxamide]	
	> 1000 nM	NC(=O)[C@H]1CC[C@@H](n2c(Nc3c(Cl)cc(F)cc3Cl)nc3cnc(NC[C@@H]4CCCC[C@@H]4O)nc32)CC1 [Example 656, (1R,4s)-4-(8-(2,6-dichloro-4-fluorophenylamino)-2-(((1S,2S)-2-hydroxycyclohexyl)methylamino)-9H-purin-9-yl)cyclohexanecarboxamide]	
	< 250 nM	C[C@]1(C(N)=O)CC[C@@H](n2c(Nc3c(F)cc(Cl)cc3F)nc3cnc(NC4CCC4)nc32)CC1 [Example 608, (1s,4s)-4-(8-(4-chloro-2,6-difluorophenylamino)-2-(cyclobutylamino)-9H-purin-9-yl)-1-methylcyclohexanecarboxamide]	
